System: Plasmodium berghei
Test: Luciferase/luciferin-expressing antifolate-resistant parasites were used to infect a culture of HepG2 cells that were pre-incubated with compounds. Infected hepatocytes emit light due to the luciferase reaction. Assay results are presented as the percent inhibition of light emission compared to control. […]
Format: functional
Conditions: sporozoite; for IC90: read-out: LUCIFERASE INFECTION ASSAY - IC90

Row | SMILES | IC90 | also measured
1 | COCCCN=C(S)NNC(=O)c1ccc(C(C)(C)C)cc1 | > 10.2 µM | IC50 (PBLUC_HILL_SLOPE 2.41, PBLUC_R_SQUARED 0.0684, read-out: LUCIFERASE INFECTION ASSAY - IC50): 8.61 µM
2 | CCC(C)(C)c1ccc(Oc2ccc(NC(=O)COC(=O)C3=COCCO3)cc2)cc1 | > 10 µM | IC50 (PBLUC_HILL_SLOPE 2.38, PBLUC_R_SQUARED 0.497, read-out: LUCIFERASE INFECTION ASSAY - IC50): 5.8 µM
3 | Cc1cc(C(=O)COC(=O)c2ccccc2O)c(C)n1CC1CCCO1 (stereo not given) | 7.71 µM | IC50 (PBLUC_HILL_SLOPE 2.39, PBLUC_R_SQUARED 0.567, read-out: LUCIFERASE INFECTION ASSAY - IC50): 3.08 µM
4 | Cc1cc(C(C)(C)C)cc(C)c1CCNC(=O)NCCNC(=O)c1ccco1 | > 10 µM | IC50 (PBLUC_HILL_SLOPE 2.38, PBLUC_R_SQUARED 0.642, read-out: LUCIFERASE INFECTION ASSAY - IC50): 5.63 µM
5 | CC(c1ccc(-n2cncn2)cc1)N(C)S(=O)(=O)N1CCc2ccccc2C1 (stereo not given) | > 10 µM | IC50 (PBLUC_HILL_SLOPE 2.44, PBLUC_R_SQUARED 0.756, read-out: LUCIFERASE INFECTION ASSAY - IC50): 6.27 µM
6 | COc1cccc(-c2nc3ccnc(NCCc4ccccc4)c3[nH]2)c1 | 7.63 µM | IC50 (PBLUC_HILL_SLOPE 2.45, PBLUC_R_SQUARED 0.513, read-out: LUCIFERASE INFECTION ASSAY - IC50): 3.11 µM
7 | Cc1oc2c(c1C(=O)N1CCN(c3ccc(F)cc3)CC1)C(=O)c1ccccc1C2=O | > 10 µM | IC50 (PBLUC_HILL_SLOPE 2.38, PBLUC_R_SQUARED 0.395, read-out: LUCIFERASE INFECTION ASSAY - IC50): 4.13 µM
8 | CN1CCN(c2ccc(-c3cn4c(-c5cccc(OC(F)(F)F)c5)cnc4cn3)cn2)CC1 | > 7.26 µM | IC50 (PBLUC_HILL_SLOPE 2.39, PBLUC_R_SQUARED 0.449, read-out: LUCIFERASE INFECTION ASSAY - IC50): 5.98 µM
9 | O=C(Cn1cc(C(F)(F)F)ccc1=O)N/N=C/c1c2ccccc2cc2ccccc12 | > 10 µM | IC50 (PBLUC_HILL_SLOPE 2.42, PBLUC_R_SQUARED 0.423, read-out: LUCIFERASE INFECTION ASSAY - IC50): 5.16 µM
10 | C/C(=N\n1c(-c2ccc(OC(F)F)cc2)cs/c1=N\CCc1ccccc1)c1ccc2c(c1)OCO2 | > 10 µM | IC50 (PBLUC_HILL_SLOPE 2.39, PBLUC_R_SQUARED 0.524, read-out: LUCIFERASE INFECTION ASSAY - IC50): 9.18 µM
11 | Cc1ccc(C)n1-c1nc2cc(C(=O)NC3CC3)ccc2s1 | 7.33 µM | IC50 (PBLUC_HILL_SLOPE 2.39, PBLUC_R_SQUARED 0.619, read-out: LUCIFERASE INFECTION ASSAY - IC50): 2.93 µM
12 | COc1ccc(S(=O)(=O)N2[C@@H]3CC[C@@H](C3)[C@H]2c2nc3c(OCC4CCOCC4)cccc3[nH]2)c(OC)c1 | > 10 µM | IC50 (PBLUC_HILL_SLOPE 2.43, PBLUC_R_SQUARED 0.162, read-out: LUCIFERASE INFECTION ASSAY - IC50): 8.16 µM
13 | Cc1nc(C(=O)N2CCc3c(c(C(=O)NC4CCCC4)nn3CC(C)C)C2)cs1 | 2.9 µM | IC50 (PBLUC_HILL_SLOPE 2.42, PBLUC_R_SQUARED 0.681, read-out: LUCIFERASE INFECTION ASSAY - IC50): 1.17 µM
14 | COc1ccc(C2CC(C)=NN2c2nc(-c3ccc(F)cc3)cs2)cc1OC (stereo not given) | > 8.3 µM | IC50 (PBLUC_HILL_SLOPE 2.46, PBLUC_R_SQUARED 0.655, read-out: LUCIFERASE INFECTION ASSAY - IC50): 4.62 µM
15 | N=C(Nc1cc(Cl)cc(Cl)c1)Nc1ncc(C(=O)c2ccccc2O)cn1 | > 10 µM | IC50 (PBLUC_HILL_SLOPE 2.46, PBLUC_R_SQUARED 0.348, read-out: LUCIFERASE INFECTION ASSAY - IC50): 5.29 µM
16 | O=C1Nc2ccccc2/C1=C/c1cccn1-c1ccc(C(F)(F)F)cc1 | > 9.31 µM | IC50 (PBLUC_HILL_SLOPE 2.37, PBLUC_R_SQUARED 0.071, read-out: LUCIFERASE INFECTION ASSAY - IC50): 5.82 µM
17 | O=C(NC1CC1)c1ccc(N2CCN(C(c3ccc(F)cc3)c3ccc(F)cc3)CC2)nc1 | > 10 µM | IC50 (PBLUC_HILL_SLOPE 2.42, PBLUC_R_SQUARED 0.524, read-out: LUCIFERASE INFECTION ASSAY - IC50): 4.87 µM
18 | COc1cc(C(=O)Nc2ccc(C(=O)NC3CC3)cc2)cc(Cl)c1OC(C)C | > 10 µM | IC50 (PBLUC_HILL_SLOPE 2.4, PBLUC_R_SQUARED 0.128, read-out: LUCIFERASE INFECTION ASSAY - IC50): 6.06 µM
19 | Cc1onc(-c2ccccc2Cl)c1C(=O)ON=C1C2CC3CC(C2)CC1C3 | > 8.57 µM | IC50 (PBLUC_HILL_SLOPE 2.42, PBLUC_R_SQUARED 0.273, read-out: LUCIFERASE INFECTION ASSAY - IC50): 5.03 µM
20 | CN(C)c1ccc(-c2cnn3c(Nc4ccc(Oc5ccccc5)cc4)ccnc23)cc1 | > 7.83 µM | IC50 (PBLUC_HILL_SLOPE 2.36, PBLUC_R_SQUARED 0.164, read-out: LUCIFERASE INFECTION ASSAY - IC50): 6.65 µM

Row | SMILES | IC90 | also measured
21 | Cc1nc(NCCCn2ccnc2)c2c(-c3cccs3)csc2n1 | > 10 µM | IC50 (PBLUC_HILL_SLOPE 2.38, PBLUC_R_SQUARED 0.267, read-out: LUCIFERASE INFECTION ASSAY - IC50): 6.39 µM
22 | COc1ccc(C(CNC(=O)Cc2coc3c(C)c(C)ccc23)N(C)C)cc1 (stereo not given) | 3.36 µM | IC50 (PBLUC_HILL_SLOPE 2.38, PBLUC_R_SQUARED 0.44, read-out: LUCIFERASE INFECTION ASSAY - IC50): 1.33 µM
23 | Cc1nc(-c2ccc3c(c2)CCN3C(=O)C2(C)Cc3ccccc3C(=O)O2)cs1 (stereo not given) | > 10 µM | IC50 (PBLUC_HILL_SLOPE 2.39, PBLUC_R_SQUARED 0.602, read-out: LUCIFERASE INFECTION ASSAY - IC50): 4.47 µM
24 | CCCCC1(COC(=O)c2ccc(C(C)(C)C)cc2)C(=O)N(c2ccccc2)N(c2ccccc2)C1=O | > 6.62 µM | IC50 (PBLUC_HILL_SLOPE 2.41, PBLUC_R_SQUARED 0.52, read-out: LUCIFERASE INFECTION ASSAY - IC50): 4.52 µM
25 | CCOc1ccc(NC(=O)c2ccc(F)cc2)cc1S(=O)(=O)N(C)C | > 10 µM | IC50 (PBLUC_HILL_SLOPE 2.43, PBLUC_R_SQUARED 0.406, read-out: LUCIFERASE INFECTION ASSAY - IC50): 8.56 µM
26 | CC(C)Cn1c(-c2ccccc2)nc2c(c(=O)c3ccccc3n2C)c1=O | > 9.18 µM | IC50 (PBLUC_HILL_SLOPE 2.45, PBLUC_R_SQUARED 0.0531, read-out: LUCIFERASE INFECTION ASSAY - IC50): 6.49 µM
27 | CCn1c(=O)[nH]c(=O)c2cc(C(=O)Nc3ccc(Oc4ccccc4)cc3)cnc21 | > 10 µM | IC50 (PBLUC_HILL_SLOPE 2.4, PBLUC_R_SQUARED 0.0614, read-out: LUCIFERASE INFECTION ASSAY - IC50): 6.87 µM
28 | CC1(C(=O)NCc2cccnc2)CCN1Cc1ccccc1Cl (stereo not given) | > 10 µM | IC50 (PBLUC_HILL_SLOPE 2.38, PBLUC_R_SQUARED 0.474, read-out: LUCIFERASE INFECTION ASSAY - IC50): 4.27 µM
29 | C=c1c(Nc2cccc(C(F)(F)F)c2)cc(Nc2cccc(C(F)(F)F)c2)c(O)c1=C | > 10 µM | IC50 (PBLUC_HILL_SLOPE 2.41, PBLUC_R_SQUARED 0.317, read-out: LUCIFERASE INFECTION ASSAY - IC50): 7.29 µM
30 | CC(C)(C)C(=O)Nc1ccc([N+](=O)[O-])cc1C#N | 4.31 µM | IC50 (PBLUC_HILL_SLOPE 2.44, PBLUC_R_SQUARED 0.671, read-out: LUCIFERASE INFECTION ASSAY - IC50): 1.75 µM
31 | Cn1cc(-c2cnc3cnc(-c4ccccc4)cn23)cn1 | 5.95 µM | IC50 (PBLUC_HILL_SLOPE 2.38, PBLUC_R_SQUARED 0.622, read-out: LUCIFERASE INFECTION ASSAY - IC50): 2.36 µM
32 | O=c1nc(Nc2ccc(Cl)cc2)[nH]nc1Cc1ccc(Cl)cc1 | 5.05 µM | IC50 (PBLUC_HILL_SLOPE 2.36, PBLUC_R_SQUARED 0.336, read-out: LUCIFERASE INFECTION ASSAY - IC50): 1.99 µM
33 | Oc1c(Br)cc(Cl)cc1/C=N/NC(=S)NC1CC1 | > 9.47 µM | IC50 (PBLUC_HILL_SLOPE 2.42, PBLUC_R_SQUARED 0.376, read-out: LUCIFERASE INFECTION ASSAY - IC50): 4.15 µM
34 | O=C(CC1S/C(=N\c2ccccn2)NC1=O)Nc1ccc(Cl)cc1 (stereo not given) | > 10 µM | IC50 (PBLUC_HILL_SLOPE 2.4, PBLUC_R_SQUARED 0.685, read-out: LUCIFERASE INFECTION ASSAY - IC50): 5.95 µM
35 | Cc1cc(CN(Cc2ccc(C(=O)NC3CC3)cc2)Cc2ccco2)no1 | > 10 µM | IC50 (PBLUC_HILL_SLOPE 2.47, PBLUC_R_SQUARED 0.284, read-out: LUCIFERASE INFECTION ASSAY - IC50): 5.89 µM
36 | S=C1CCc2ccccc2N1Cc1ccccc1 | > 13 µM | IC50 (PBLUC_HILL_SLOPE 2.45, PBLUC_R_SQUARED 0.245, read-out: LUCIFERASE INFECTION ASSAY - IC50): > 13 µM
37 | CC(=O)c1ccc(NC(=O)c2cc(-c3cc(C)ccc3C)nc3ccccc23)cc1 | > 8.37 µM | IC50 (PBLUC_HILL_SLOPE 2.38, PBLUC_R_SQUARED 0.305, read-out: LUCIFERASE INFECTION ASSAY - IC50): 4.56 µM
38 | COc1ccc(C)cc1NC(=O)c1ccc(NC(=O)Nc2ccccc2)s1 | > 10 µM | IC50 (PBLUC_HILL_SLOPE 2.41, PBLUC_R_SQUARED 0.229, read-out: LUCIFERASE INFECTION ASSAY - IC50): 7.11 µM
39 | CCOc1ccc(N(C)S(=O)(=O)c2ccc(C)c(C(=O)Nc3nc4ccccc4[nH]3)c2)cc1 | 3.87 µM | IC50 (PBLUC_HILL_SLOPE 2.47, PBLUC_R_SQUARED 0.24, read-out: LUCIFERASE INFECTION ASSAY - IC50): 1.59 µM
40 | O=C(Nc1ccc(OC(F)(F)F)cc1)c1cc([N+](=O)[O-])c[nH]c1=O | > 10 µM | IC50 (PBLUC_HILL_SLOPE 2.36, PBLUC_R_SQUARED 0.402, read-out: LUCIFERASE INFECTION ASSAY - IC50): 5.59 µM

Reference: ChEMBL document CHEMBL4483862, “Open-source discovery of chemical leads for next-generation chemoprotective antimalarials” (2018)
